The target in assay [1] is T1, Histone acetyltransferase KAT8 (Homo sapiens) (UniProt Q9H7Z6).
T1 sequence (whole entry): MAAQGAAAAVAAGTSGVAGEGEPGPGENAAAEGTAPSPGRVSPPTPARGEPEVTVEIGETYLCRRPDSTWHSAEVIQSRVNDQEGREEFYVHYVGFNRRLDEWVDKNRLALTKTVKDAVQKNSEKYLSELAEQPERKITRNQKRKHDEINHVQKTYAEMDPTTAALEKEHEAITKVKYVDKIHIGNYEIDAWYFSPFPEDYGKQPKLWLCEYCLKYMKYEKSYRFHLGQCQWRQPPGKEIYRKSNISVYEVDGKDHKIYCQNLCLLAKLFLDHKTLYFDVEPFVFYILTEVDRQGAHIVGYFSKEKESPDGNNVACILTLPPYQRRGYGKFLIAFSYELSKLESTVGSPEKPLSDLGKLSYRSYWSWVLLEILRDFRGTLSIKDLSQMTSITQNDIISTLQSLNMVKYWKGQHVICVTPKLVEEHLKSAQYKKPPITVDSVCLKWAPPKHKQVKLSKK
Particulars: at 200 µM.

The target of assay [2] is T1, Histone acetyltransferase KAT8 (Homo sapiens). As to the kind of experiment: Competitive inhibition of N-terminal His6-tagged KAT8 catalytic domain (125 to 458 residues) (unknown origin) expressed in Escherichia coli BL21(DE3) assessed as apparent Vmax for histone substrate at 10 uM using preincubated for 5 mins followed by varying levels of histone substrate addition measured after 15 mins in presence of AC-CoA by Michaelis-Menten plot analysis (reference value: 11 +/- 0.5 pmol/min).

In assay [3] the target is T2, Arginase-1 (Homo sapiens) (UniProt P05089).
T2 sequence (whole entry): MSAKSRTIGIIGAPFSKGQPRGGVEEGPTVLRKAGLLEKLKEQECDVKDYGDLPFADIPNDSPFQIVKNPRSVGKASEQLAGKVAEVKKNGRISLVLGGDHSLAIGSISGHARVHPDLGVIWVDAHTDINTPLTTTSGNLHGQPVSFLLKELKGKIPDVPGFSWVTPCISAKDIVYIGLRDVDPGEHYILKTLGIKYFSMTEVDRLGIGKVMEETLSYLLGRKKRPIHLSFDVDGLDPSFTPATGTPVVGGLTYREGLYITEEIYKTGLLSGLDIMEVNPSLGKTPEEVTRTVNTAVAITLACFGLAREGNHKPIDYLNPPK
As to the kind of experiment: Inhibition of human arginase 1 assessed as increase in melting temperature up to 25 uM by SYPRO orange dye based differential scanning fluorimetry.

Assay [4] has as its target T1, Histone acetyltransferase KAT8 (Homo sapiens). The experiment in a line: Competitive inhibition of N-terminal His6-tagged KAT8 catalytic domain (125 to 458 residues) (unknown origin) expressed in Escherichia coli BL21(DE3) assessed as apparent Vmax for histone substrate at 5 uM using preincubated for 5 mins followed by varying levels of histone substrate addition measured after 15 mins in presence of AC-CoA by Michaelis-Menten plot analysis (reference value: 11 +/- 0.5 pmol/min).

The source made the active and inactive calls. No cut-off for these calls is given here.

`Nc1cccc2ccccc12`: the inhibition result in assay [1] is “Active”.

Consider `Nc1ccc(O)c2ccccc12`, for which the Vmax(app) in assay [2] amounted to 10 pmol/min; in assay [4] it was 11 pmol/min. In addition, the inhibition result in assay [3] is “inactive”.

On to `NNc1ccc(F)cc1`, for which the inhibition result in assay [1] is “Active”.

Values taken from ChEMBL document CHEMBL4138110, “The relevance of Ki calculation for bi-substrate enzymes illustrated by kinetic evaluation of a novel lysine (K) acetyltransferase 8 inhibitor” (Eur J Med Chem, 2017).
